According to US7645609B2, “Method for controlling sialylation of proteins produced by mammalian cells” (Immunex Corporation, priority 2002, dated 2010):

Experiments:
cultured cells = details: N-acetylmannosamine added to culture medium; cited from earlier work
[1] = test system: CHO cell line that had been genetically engineered to produce TNFR:Fc; test: Fraction of TNFR:Fc eluting at high salt from an anion exchange column (relative extent of sialylation); assay type: cell-based, Chinese hamster; details: additives at 4 mM each in serum-free medium, 7 days at 30° C., FIG. 2
Description: The following experiment was done to determine which carbohydrate or combination of carbohydrates added to cell culture medium is able to induce the most sialylation of TNFR:Fc produced by the cells. The relative extent of sialylation was determined by measuring the fraction of TNFR:Fc produced by a cell culture that elutes from an anion exchange column only at a high salt concentration. This provides a rough measure of the extent of sialylation because proteins with more sialic acid require a higher salt concentration for elution from an anion exchange column. […] Cultures were incubated for 7 days at 30° C. with shaking at 150 revolutions per minute. TNFR:Fc was harvested from the medium after seven days of growth and pre-purified by Protein A affinity chromatography. Thereafter, the purified TNFR:Fc protein concentration was determined by measuring absorbance at 280 nanometers. […] At 22.1 minutes, the gradient was complete, and the column contained 100% Buffer B. Elution of protein was determined by monitoring absorbance at 280 nanometers, and a graph of these measurements versus time (relative to the time of loading) was recorded automatically as the protein eluted from the column. […] The fraction of TNFR:Fc that eluted at high salt was determined by comparing the area under the curve that eluted after soybean trypsin inhibitor with the total area under the curve. […]

| Compound | sialylation of a protein produced by the cultured cells (cultured cells) | sialylation of TNFR:Fc (high salt-eluting fraction compared to a batch produced without medium additives) [1] |
| --- | --- | --- |
| CC(=O)N[C@@H]1C(O)O[C@H](CO)[C@@H](O)[C@@H]1O (some centres unmarked) [N-acetylmannosamine] | increased sialylation |  |
| O=C[C@H](O)[C@@H](O)[C@@H](O)[C@H](O)CO [galactose] |  | increases in sialylation |
